Results reported in patent US6841366B1, “Biotin biosynthesis in bacillus subtilis” (DSM IP Assets B.V., priority 1993, dated 2005).

Assays:
B. subtilis PY79 = test: Crystal of biotin analog on plates, growth inhibition; assay type: cell-based; details: for Growth inhibition around crystal, zones of clearing: EMS-mutagenized PY79, TBAB plates, overnight at 37° C.; for Zones of killing around crystal: PY79, EMS1, EMS2 on TBAB, BIOS or MIN plates, after 24 h
Excerpt: Biotin analogs were used to select for strains that were deregulated for biotin production. Among the mutations sought were those in a potential homolog of the E. coli birA gene. However, it is expected that selection for resistance to biotin analogs can also yield strains with mutations in the operator site(s) of birA, or in genes encoding functions responsible for the transport of the analogs into the cell. Analog-resistant mutants can also contain a gene or genes that encode enzymes resistant to inhibitors including, but not limited to, feedback inhibitors. Several biotin analogs (homobiotin, α-dehydrobiotin, and 5(2-thienyl)pentanoic acid) were obtained from Nippon Roche KK (Kanagsua, Japan). Mutagenized cells of B. subtilis were plated on TBAB (Difco Tryptose Blood Agar Base, cat. no. 0232-01-9) plates containing a crystal of each biotin analog.
An additional 27 mutants were selected subsequently in similar plate screenings for their resistance to the analogs homobiotin (HB) and α-dehydrobiotin (α-DB). For this latter selection, B. subtilis PY79 cultures were subjected to mutagenesis with EMS in two independent experiments. […] Overnight cultures of PY79, EMS1, and EMS2 grown in rich medium were plated on TBAB (rich), BIOS (biotin free) or MIN (glucose-minimal) plates and a crystal of homobiotin or α-dehydrobiotin was placed on each of the plates. […] Individual colonies were picked from homobiotin plates or α-dehydrobiotin plates and restreaked on BIOS plates containing α-dehydrobiotin or homobiotin.

[1] = tested on: bioW-lacZ translational fusion; test: bioW-lacZ translational fusion integrated at the bio locus, β-galactosidase liquid ONPG assay; assay type: cell-based, B. subtilis
Excerpt: A translational lacZ fusion was constructed to confirm the activity and regulation of the putative promoter and regulatory region, and to assess the relative level of expression of the B. subtilis biotin operon in a variety of contexts. This was accomplished by inserting a 3.1 kb BamHI-BglII fragment containing a promoter-less lacZ coding region into the BamHI site of pBIO350, to give pBIO397 and pBIO398.
To test the bioW-lacZ fusion for biotin-regulated expression in B. subtilis, Bio^+ partial diploids were constructed. The cat cassette was cloned into pBIO397 using the single SmaI site located within the polylinker region downstream from the lacZ gene. One recombinant plasmid, pBIO397cat, with the cat gene oriented in the same direction as the translational fusion, was used to generate Bio^+ partial diploids. Competent cells of the prototrophic B. subtilis strain PY79 were transformed with pBIO397cat plasmid DNA selecting for Cm^r. Transformants should only arise by recombination into the chromosome. This leaves an intact copy of the bio operon, allowing activity of the lac fusion to be assessed in the absence of added biotin.
The promoter of the BamHI to PstI fragment cloned in pBIO350 is regulated by biotin. Two Cm^r Bio^+ partial diploids containing the bioW-lacZ fusion were tested for β-galactosidase activity in biotin-free medium in the presence or absence of biotin (100 μg/liter). In liquid ONPG assays, both strains were regulated specifically by biotin. The level of β-galactosidase was repressed in the presence of biotin and induced in its absence to 24 to 85-fold higher specific activity (Table 3). This strain with the bioW::lacZ fusion integrated at the bio operon has also been used to isolate new biotin analog-resistant mutants (see below) on X-gal indicator plates.

PY79 bioI::cat = test: Growth of bioI::cat mutants on biotin-free medium with supplements; assay type: cell-based, B. subtilis; details: biotin 33 μg/ml
[2] = tested on: B. subtilis PY79 and azelaic acid resistant mutants; test: Growth inhibition by azelaic acid, minimal agar; assay type: cell-based; details: addition of 1 μg/l biotin
Excerpt: Azelaic acid, a straight chain C9 dicarboxylic acid, is a homolog of pimelic acid and is thought to be an intermediate in the conversion of oleic acid to pimelic acid (see Ohsugi and Inoue (1981) Agric. Biol. Chem. 45: 2355-2356, hereby incorporated by reference).
Seven spontaneous mutants that outgrew the background of PY79 on 2 g/l Azelaic acid were isolated. The resistance to azelaic acid appeared to be a stable trait in all but one case (see below). The seven mutants were provisionally named PA1-PA7 (PY79 Azelaic acid resistant). PA1 through PA7 were grown in test tubes in VY medium, and biotin production was assayed using E. coli indicator strains (Table 15). The mutants fell into two classes, those that yielded more biotin than PY79 (PA5, PA6) and those that were similar to PY79 (PA1, 2, 3, and 7). PA4 appeared to be either unstable or not a true mutant and was dropped from further study. Applicants also noticed that the mutants fell into two classes with respect to colony size on minimal agar with 2 g/l azelaic acid, and that these two classes corresponded to the two classes of biotin producers (Table 11). The mutants with the most biotin in the supernatant (PA5 and PA6) gave small colonies, while the biotin non-secreters, PA1, 2, 3, and 7, gave large colonies. PA1 and PA3 secreted a compound that cross-fed PY79 (i.e., reversed the azelaic acid inhibition of PY79) on minimal plates containing 2 g/l azelaic acid.

SPβ::bioW-lacZ = test: SPβ-borne single-copy bioW-lacZ translational fusion, β-galactosidase assay; assay type: cell-based, B. subtilis
Procedure: Other strains, in addition to the lacZ fusion strain of Example IVA, can be constructed for deciphering biotin regulatory mechanisms. For example, Applicants recognized that insertion of the plasmid-borne bioW-lacZ fusion into the chromosome causes technical problems because the integrated plasmid amplifies in copy number. Thus the expression of the bioW-lacZ fusion at single copy-number and at a site distinct from the bio operon was tested by introducing the fusion into a modified SPβ specialized transducing phage (see, e.g., Zuber et al., J. Bacteriol. 169:2223-2230, 1987, hereby incorporated by reference).
Two isolates of PY79 (SPβ::bioW-lacZ) and BI421 (SPβ::bioW-lacZ) were assayed for β-galactosidase activity as described above.
Biotin regulation was also examined in two independently isolated biotin analog-resistant mutants. HB3 contains a spontaneous birA mutation and α-DB9 contains an α-dehydrobiotin resistant mutation unlinked to either bio or birA. These strains were transduced, grown, and assayed as described above, except that α-DB9 (SPβ::bioW-lacZ) was assayed during mid-exponential growth.

[3] = tested on: B. subtilis birA/azl^r strains; test: Screen of parents and Trp+ transductants for homobiotin resistance; assay type: cell-based; design: key to Homobiotin resistant/sensitive: R: resistant; S: sensitive
Excerpt: The birA mutation from either HB3 or α-DB16 was introduced into either PA3 or PA6 by a two step transduction process. First, PA3 and PA6 were made Trp^− by transduction with trpE::Tn917lac (Perkins and Youngman, (Proc. Nat'l Acad. Sci USA 83:140-144 (1986)) selecting for erythromycin resistance. The birA mutations were transduced from HB3 or α-DB16, selecting for Trp^+. Parents and Trp^+ transductants were screened for homobiotin resistance and azelaic acid resistance. PA6 was homobiotin sensitive, so double mutants could be identified among Trp^+ transductants by screening for homobiotin resistant colonies. Only about 60% of Trp^+ transductants were also homobiotin resistant (this may be due to Tn917 distortion of the map distance between birA and trpE normally 90% linkage by transduction). PA3 was resistant to homobiotin, so direct identification of double mutants was not possible. However, 60% of the transductants were double mutants as judged by increased biotin secretion, see below.

SMILES: O=C(O)CCCCc1cccs1 [5(2-thienyl) pentanoic acid, 5(2-thienyl)pentanoic acid]
- Growth inhibition around crystal, zones of clearing (B. subtilis PY79): inhibited the growth

SMILES: O=C(O)CCCC[C@@H]1SC[C@@H]2NC(=O)N[C@@H]21 [Biotin]
- Fold Increase of β-galactosidase activity, −Biotin over +Biotin (100 μg/l) ([1]; PY79(bioW-lacZ)12A, Late Log): 24 Fold
- β-galactosidase activity +Biotin (100 μg/l) ([1]; PY79(bioW-lacZ)12A, Late Log (OD600 0.7-0.8)): 0.47 Miller Units
- Fold Increase of β-galactosidase activity, −Biotin over +Biotin (100 μg/l) ([1]; PY79(bioW-lacZ)12A, Late Stationary): 53 Fold
- β-galactosidase activity +Biotin (100 μg/l) ([1]; PY79(bioW-lacZ)12A, Late Stationary (OD600 1.4-1.6)): 0.13 Miller Units
- Fold Increase of β-galactosidase activity, −Biotin over +Biotin (100 μg/l) ([1]; PY79(bioW-lacZ)12A, Stationary): 65 Fold
- β-galactosidase activity +Biotin (100 μg/l) ([1]; PY79(bioW-lacZ)12A, Stationary (OD600 1.1-1.4)): 0.17 Miller Units
- Fold Increase of β-galactosidase activity, −Biotin over +Biotin (100 μg/l) ([1]; PY79(bioW-lacZ)14A, Late Log): 33 Fold
- β-galactosidase activity +Biotin (100 μg/l) ([1]; PY79(bioW-lacZ)14A, Late Log (OD600 0.7--0.8)): 0.64 Miller Units
- Fold Increase of β-galactosidase activity, −Biotin over +Biotin (100 μg/l) ([1]; PY79(bioW-lacZ)14A, Late Stationary): 85 Fold
- β-galactosidase activity +Biotin (100 μg/l) ([1]; PY79(bioW-lacZ)14A, Late Stationary (OD600 1.213-1.320)): 0.10 Miller Units
- Fold Increase of β-galactosidase activity, −Biotin over +Biotin (100 μg/l) ([1]; PY79(bioW-lacZ)14A, Stationary): 82 Fold
- β-galactosidase activity +Biotin (100 μg/l) ([1]; PY79(bioW-lacZ)14A, Stationary (OD600 1.1-1.4)): 0.15 Miller Units
- Growth of bioI::cat insertion colonies (PY79 bioI::cat): grew to wild-type levels
- Reversal of azelaic acid growth inhibition of wild-type B. subtilis [2]: reversed
- Fold Increase of β-galactosidase activity, −Biotin over +Biotin (100 μg/l) (SPβ::bioW-lacZ; BI421 (SPβ::bioW-lacZ)/#1 (birA)): 1.5 Fold
- β-galactosidase activity +Biotin (100 μg/l) (SPβ::bioW-lacZ; BI421 (SPβ::bioW-lacZ)/#1 (birA), OD600 1.00-0.936): 0.67 Miller Units
- Fold Increase of β-galactosidase activity, −Biotin over +Biotin (100 μg/l) (SPβ::bioW-lacZ; BI421 (SPβ::bioW-lacZ)/#3 (birA)): 0.9 Fold
- β-galactosidase activity +Biotin (100 μg/l) (SPβ::bioW-lacZ; BI421 (SPβ::bioW-lacZ)/#3 (birA), OD600 1.07-0.92): 0.96 Miller Units
- Fold Increase of β-galactosidase activity, −Biotin over +Biotin (100 μg/l) (SPβ::bioW-lacZ; HB3 (SPβ::bioW-lacZ)/#1 (birA)): 1.3 Fold
- β-galactosidase activity +Biotin (100 μg/l) (SPβ::bioW-lacZ; HB3 (SPβ::bioW-lacZ)/#1 (birA), OD600 1.068-1.076): 0.24 Miller Units
- Fold Increase of β-galactosidase activity, −Biotin over +Biotin (100 μg/l) (SPβ::bioW-lacZ; HB3 (SPβ::bioW-lacZ)/#3 (birA)): 0.8 Fold
- β-galactosidase activity +Biotin (100 μg/l) (SPβ::bioW-lacZ; HB3 (SPβ::bioW-lacZ)/#3 (birA), OD600 1.213-1.320): 0.18 Miller Units
- β-galactosidase repressed in the presence of biotin, induced in the absence of biotin (SPβ::bioW-lacZ; PY79 (SPβ::bioW-lacZ)): 9-15 fold
- Fold Increase of β-galactosidase activity, −Biotin over +Biotin (100 μg/l) (SPβ::bioW-lacZ; PY79 (SPβ::bioW-lacZ)/#1): 15 Fold
- β-galactosidase activity +Biotin (100 μg/l) (SPβ::bioW-lacZ; PY79 (SPβ::bioW-lacZ)/#1, OD600 1.04-1.08): 0.04 Miller Units
- Fold Increase of β-galactosidase activity, −Biotin over +Biotin (100 μg/l) (SPβ::bioW-lacZ; PY79 (SPβ::bioW-lacZ)/#3): 9 Fold
- β-galactosidase activity +Biotin (100 μg/l) (SPβ::bioW-lacZ; PY79 (SPβ::bioW-lacZ)/#3, OD600 0.988-0.960): 0.06 Miller Units
- Fold Increase of β-galactosidase activity, −Biotin over +Biotin (100 μg/l) (SPβ::bioW-lacZ; α-D89 (SPβ::bioW-lacZ)/#1): 9.2 Fold
- β-galactosidase activity +Biotin (100 μg/l) (SPβ::bioW-lacZ; α-D89 (SPβ::bioW-lacZ)/#1, OD600 0.892-0.528, one measurement): 0.18 Miller Units
- Fold Increase of β-galactosidase activity, −Biotin over +Biotin (100 μg/l) (SPβ::bioW-lacZ; α-D89 (SPβ::bioW-lacZ)/#3): 12.3 Fold
- β-galactosidase activity +Biotin (100 μg/l) (SPβ::bioW-lacZ; α-D89 (SPβ::bioW-lacZ)/#3, OD600 1.344-1.200): 0.11 Miller Units

SMILES: O=C(O)CCCCC[C@@H]1SC[C@@H]2NC(=O)N[C@@H]21 [Homobiotin, homobiotin]
- Zones of killing around crystal (B. subtilis PY79): zones of killing were observed
- Homobiotin resistant/sensitive ([3]; parent PA3, birA donor HB3, isolate 1): R
- Homobiotin resistant/sensitive ([3]; parent PA3, birA donor HB3, isolate 2): R
- Homobiotin resistant/sensitive ([3]; parent PA3, birA donor α-DB16, isolate 1): R
- Homobiotin resistant/sensitive ([3]; parent PA6, birA donor HB3, isolate 2): R
- Homobiotin resistant/sensitive ([3]; parent PA6, birA donor HB3, isolate 6): R
- Homobiotin resistant/sensitive ([3]; parent PA6, birA donor α-DB16, isolate 8): R
- Homobiotin resistant/sensitive ([3]; parent PA6, birA donor α-DB16, isolate 14): R
- Homobiotin resistant/sensitive ([3]; strain HB3): R
- Homobiotin resistance of PA3 ([3]; strain PA3): resistant
- Homobiotin resistant/sensitive ([3]; strain PA3): R
- Homobiotin resistant/sensitive ([3]; strain PA6): S
- Homobiotin sensitivity of PA6 ([3]; strain PA6): sensitive
- Homobiotin resistant/sensitive ([3]; strain PY79): S
- Homobiotin resistant/sensitive ([3]; strain α-DB16): R

SMILES: O=C(O)/C=C/CCC1SCC2NC(=O)NC21 (stereo not drawn) [α-dehydrobiotin]
- Growth inhibition around crystal, zones of clearing (B. subtilis PY79): inhibited the growth
- Zones of killing around crystal (B. subtilis PY79): zones of killing were observed
